Experiments:
Type in all cases: in vivo
[1] = test system: field corn (Zea mays L., var. Dekalb 535, CORN); assay: Pre-emerge test, crop safety; details: for Pre-emerge phytotoxicity rating, crop damage CORN: rating scale 0-100, 14 days after application; for phytotoxicity rating CORN: pre-emerge, 14 days after application, rating scale 0-100
Procedure, shortened: (§1)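 Sandy loam pots; pre-emerge: sown 1 d pre-spray, surface-watered after, then bottom-watered. Post-emerge: sown 8–21 d before, 2–3 leaf stage, + 0.25% v/v NIS, bottom-watered. Acetone, 187 l/ha track spray, 15–1000 g ai/ha. 0–100 injury score, day 14.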

[2] = test system: upland rice (Oryza sp., var. Tebonnet, RICE); assay: Pre-emerge test, crop safety; details: for Pre-emerge phytotoxicity rating, crop damage RICE: rating scale 0-100, 14 days after application; for phytotoxicity rating RICE: pre-emerge, 14 days after application, rating scale 0-100
Procedure, shortened: as §1

[3] = test system: field corn (Zea mays L., var. Dekalb 535, CORN); assay: Post-emerge test, crop safety; details: post-emerge; for Post-emerge Herbicidal Activity CORN: crop damage rating 0-100 at 14 days after application; for Post-emerge Herbicidal Activity CORN (crop damage rating): 14 days after application, rating scale 0-100
Procedure, shortened: (§2)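 Visual ratings on a 0-100 scale (0 no damage, 100 all plants dead) were taken at 14 days after treatment. Rates of 15-1000 g ai/ha in acetone, 187 l/ha, were sprayed onto soil one day after planting (pre-emerge) or onto 2-3 leaf plants with 0.25% v/v surfactant (post-emerge).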

[4] = test system: upland rice (Oryza sp., var. Tebonnet, RICE); assay: Post-emerge test, crop safety; details: post-emerge; for Post-emerge Herbicidal Activity RICE: crop damage rating 0-100 at 14 days after application; for Post-emerge Herbicidal Activity RICE (crop damage rating): 14 days after application, rating scale 0-100
Procedure, shortened: as §2

[5] = test system: ivyleaf morningglory (Ipomoea hederacea, IPOHE); assay: Post-emerge test, greenhouse herbicide activity screening; details: post-emerge; for Post-emerge Herbicidal Activity IPOHE: phytotoxicity rating 0-100 at 14 days after application; for Post-emerge Herbicidal Activity IPOHE (phytotoxicity rating): 14 days after application, rating scale 0-100
Procedure, shortened: (§3)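 Each test used a mechanized track sprayer delivering 187 l/ha of acetone solution at 15–1000 g ai/ha. Post-emerge foliage at 2–3 leaves was treated with added 0.25% v/v non-ionic surfactant and bottom-watered only. Injury was assessed on day 14, where 100 means total kill.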

[6] = test system: barnyardgrass (Echinochloa crus-galli, ECHCG); assay: as above; details: post-emerge; for Post-emerge Herbicidal Activity ECHCG: phytotoxicity rating 0-100 at 14 days after application; for Post-emerge Herbicidal Activity ECHCG (phytotoxicity rating): 14 days after application, rating scale 0-100
Procedure, shortened: as §3

[7] = test system: redroot pigweed (Amaranthus retroflexus, AMARE); assay: as above; details: post-emerge; for Post-emerge Herbicidal Activity AMARE: phytotoxicity rating 0-100 at 14 days after application; for Post-emerge Herbicidal Activity AMARE (phytotoxicity rating): 14 days after application
Procedure, shortened: as §3

[8] = test system: lambsquarters (Chenopodium album, CHEAL); assay: as above; details: post-emerge; for Post-emerge Herbicidal Activity CHEAL: phytotoxicity rating 0-100 at 14 days after application; for Post-emerge Herbicidal Activity CHEAL (phytotoxicity rating): 14 days after application, rating scale 0-100
Procedure, shortened: as §3

[9] = test system: large crabgrass (Digitaria sanguinalis, DIGSA); assay: as above; details: post-emerge; for Post-emerge Herbicidal Activity DIGSA: phytotoxicity rating 0-100 at 14 days after application; for Post-emerge Herbicidal Activity DIGSA (phytotoxicity rating): 14 days after application, rating scale 0-100
Procedure, shortened: as §3

[10] = test system: velvetleaf (Abutilon theophrasti, ABUTH); assay: as above; details: post-emerge; for Post-emerge Herbicidal Activity ABUTH: phytotoxicity rating 0-100 at 14 days after application; for Post-emerge Herbicidal Activity ABUTH (phytotoxicity rating): 14 days after application, rating scale 0-100
Procedure, shortened: as §3

[11] = test system: green foxtail (Setaria viridis, SETVI); assay: as above; details: post-emerge; for Post-emerge Herbicidal Activity SETVI: phytotoxicity rating 0-100 at 14 days after application; for Post-emerge Herbicidal Activity SETVI (phytotoxicity rating): 14 days after application, rating scale 0-100
Procedure, shortened: as §3

[12] = test system: sicklepod (Cassia obtusifolia, CASOB); assay: as above; details: post-emerge; for Post-emerge Herbicidal Activity CASOB: phytotoxicity rating 0-100 at 14 days after application; for Post-emerge Herbicidal Activity CASOB (phytotoxicity rating): 14 days after application, rating scale 0-100
Procedure, shortened: as §3

[13] = test system: redroot pigweed (Amaranthus retroflexus, AMARE); assay: Pre-emerge test, greenhouse herbicide activity screening; details: for Pre-emerge herbicidal activity, phytotoxicity rating AMARE: rating scale 0-100, 14 days after application; for phytotoxicity rating AMARE: pre-emerge, 14 days after application, rating scale 0-100
Procedure, shortened: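 Rating: 0–100 visual injury, 14 DAA. Application: acetone, 187 l/ha, 15–1000 g ai/ha, flat-fan track sprayer with nozzle 40–45 cm above soil or canopy. Post-emerge runs used 0.25% v/v surfactant on 2–3 leaf plants.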

[14] = test system: ivyleaf morningglory (Ipomoea hederacea, IPOHE); assay: as above; details: for Pre-emerge herbicidal activity, phytotoxicity rating IPOHE: rating scale 0-100, 14 days after application; for phytotoxicity rating IPOHE: pre-emerge, 14 days after application, rating scale 0-100
Procedure, shortened: as §2

[15] = test system: barnyardgrass (Echinochloa crus-galli, ECHCG); assay: as above; details: for Pre-emerge herbicidal activity, phytotoxicity rating ECHCG: rating scale 0-100, 14 days after application; for phytotoxicity rating ECHCG: pre-emerge, 14 days after application, rating scale 0-100
Procedure, shortened: as §2

[16] = test system: lambsquarters (Chenopodium album, CHEAL); assay: as above; details: for Pre-emerge herbicidal activity, phytotoxicity rating CHEAL: rating scale 0-100, 14 days after application; for phytotoxicity rating CHEAL: pre-emerge, 14 days after application, rating scale 0-100
Procedure, shortened: as §2

[17] = test system: large crabgrass (Digitaria sanguinalis, DIGSA); assay: as above; details: for Pre-emerge herbicidal activity, phytotoxicity rating DIGSA: rating scale 0-100, 14 days after application; for phytotoxicity rating DIGSA: pre-emerge, 14 days after application, rating scale 0-100
Procedure, shortened: as §2

[18] = test system: velvetleaf (Abutilon theophrasti, ABUTH); assay: as above; details: for Pre-emerge herbicidal activity, phytotoxicity rating ABUTH: rating scale 0-100, 14 days after application; for phytotoxicity rating ABUTH: pre-emerge, 14 days after application, rating scale 0-100
Procedure, shortened: as §2

[19] = test system: green foxtail (Setaria viridis, SETVI); assay: as above; details: for Pre-emerge herbicidal activity, phytotoxicity rating SETVI: rating scale 0-100, 14 days after application; for phytotoxicity rating SETVI: pre-emerge, 14 days after application, rating scale 0-100
Procedure, shortened: as §2

[20] = test system: johnsongrass (Sorghum halepense, SORHA); assay: as above; details: for Pre-emerge herbicidal activity, phytotoxicity rating SORHA: rating scale 0-100, 14 days after application; for phytotoxicity rating SORHA: pre-emerge, 14 days after application, rating scale 0-100
Procedure, shortened: as §2

[21] = test system: sicklepod (Cassia obtusifolia, CASOB); assay: as above; details: for Pre-emerge herbicidal activity, phytotoxicity rating CASOB: rating scale 0-100, 14 days after application; for phytotoxicity rating CASOB: pre-emerge, 14 days after application, rating scale 0-100
Procedure, shortened: as §2

COc1c(Cl)cc(F)c(N2C(=O)c3ccccc3C2=O)c1NC(=O)c1ccc(F)cc1F [13-4]
40: Post-emerge Herbicidal Activity SETVI ([11]; 250 g ai/ha) | Pre-emerge herbicidal activity, phytotoxicity rating SORHA ([20]; 250 g ai/ha)
95: Post-emerge Herbicidal Activity AMARE ([7]; 250 g ai/ha) | Post-emerge Herbicidal Activity CHEAL ([8]; 63 g ai/ha) | Post-emerge Herbicidal Activity CASOB ([12]; 63 g ai/ha)
85: Post-emerge Herbicidal Activity IPOHE ([5]; 63 g ai/ha) | Post-emerge Herbicidal Activity IPOHE ([5]; 250 g ai/ha)
50: Post-emerge Herbicidal Activity RICE ([4]; 250 g ai/ha) | Pre-emerge herbicidal activity, phytotoxicity rating CASOB ([21]; 250 g ai/ha)
90: Pre-emerge herbicidal activity, phytotoxicity rating IPOHE ([14]; 250 g ai/ha) | Pre-emerge herbicidal activity, phytotoxicity rating DIGSA ([17]; 250 g ai/ha) | Pre-emerge herbicidal activity, phytotoxicity rating ABUTH ([18]; 63 g ai/ha) | Pre-emerge herbicidal activity, phytotoxicity rating SETVI ([19]; 250 g ai/ha)
10: Post-emerge Herbicidal Activity ECHCG ([6]; 63 g ai/ha) | Post-emerge Herbicidal Activity DIGSA ([9]; 250 g ai/ha) | Pre-emerge herbicidal activity, phytotoxicity rating IPOHE ([14]; 63 g ai/ha) | Pre-emerge herbicidal activity, phytotoxicity rating SORHA ([20]; 63 g ai/ha)
30: Pre-emerge phytotoxicity rating, crop damage RICE ([2]; 250 g ai/ha) | Post-emerge Herbicidal Activity RICE ([4]; 63 g ai/ha) | Post-emerge Herbicidal Activity ECHCG ([6]; 250 g ai/ha) | Pre-emerge herbicidal activity, phytotoxicity rating ECHCG ([15]; 250 g ai/ha) | Pre-emerge herbicidal activity, phytotoxicity rating SETVI ([19]; 63 g ai/ha)
0: Pre-emerge phytotoxicity rating, crop damage CORN ([1]; 63 g ai/ha) | Pre-emerge phytotoxicity rating, crop damage RICE ([2]; 63 g ai/ha) | Post-emerge Herbicidal Activity DIGSA ([9]; 63 g ai/ha) | Pre-emerge herbicidal activity, phytotoxicity rating ECHCG ([15]; 63 g ai/ha) | Pre-emerge herbicidal activity, phytotoxicity rating DIGSA ([17]; 63 g ai/ha) | Pre-emerge herbicidal activity, phytotoxicity rating CASOB ([21]; 63 g ai/ha)
60: Pre-emerge herbicidal activity, phytotoxicity rating AMARE ([13]; 63 g ai/ha)
5: Post-emerge Herbicidal Activity CORN ([3]; 63 g ai/ha) | Post-emerge Herbicidal Activity CORN ([3]; 250 g ai/ha)
100: Post-emerge Herbicidal Activity AMARE ([7]; 63 g ai/ha) | Post-emerge Herbicidal Activity CHEAL ([8]; 250 g ai/ha) | Post-emerge Herbicidal Activity ABUTH ([10]; 63 g ai/ha) | Post-emerge Herbicidal Activity ABUTH ([10]; 250 g ai/ha) | Post-emerge Herbicidal Activity CASOB ([12]; 250 g ai/ha) | Pre-emerge herbicidal activity, phytotoxicity rating AMARE ([13]; 250 g ai/ha) | Pre-emerge herbicidal activity, phytotoxicity rating CHEAL ([16]; 63 g ai/ha) | Pre-emerge herbicidal activity, phytotoxicity rating CHEAL ([16]; 250 g ai/ha) | Pre-emerge herbicidal activity, phytotoxicity rating ABUTH ([18]; 250 g ai/ha)
15: Pre-emerge phytotoxicity rating, crop damage CORN ([1]; 250 g ai/ha)
20: Post-emerge Herbicidal Activity SETVI ([11]; 63 g ai/ha)

COc1c(Cl)cc(F)c(-n2c(=O)cc(C(F)(F)F)n(C)c2=O)c1NNC(=O)Oc1ccccc1 [15-7]
85: phytotoxicity rating CORN ([1]; 63 g ai/ha)
80: Post-emerge Herbicidal Activity CORN (crop damage rating) ([3]; 250 g ai/ha) | phytotoxicity rating ECHCG ([15]; 63 g ai/ha)
60: Post-emerge Herbicidal Activity CORN (crop damage rating) ([3]; 63 g ai/ha) | Post-emerge Herbicidal Activity CASOB (phytotoxicity rating) ([12]; 63 g ai/ha)
75: Post-emerge Herbicidal Activity DIGSA (phytotoxicity rating) ([9]; 250 g ai/ha)
40: Post-emerge Herbicidal Activity ECHCG (phytotoxicity rating) ([6]; 63 g ai/ha)
95: Post-emerge Herbicidal Activity ECHCG (phytotoxicity rating) ([6]; 250 g ai/ha) | phytotoxicity rating IPOHE ([14]; 63 g ai/ha) | phytotoxicity rating SORHA ([20]; 63 g ai/ha)
100: phytotoxicity rating CORN ([1]; 250 g ai/ha) | phytotoxicity rating RICE ([2]; 250 g ai/ha) | Post-emerge Herbicidal Activity IPOHE (phytotoxicity rating) ([5]; 63 g ai/ha) | Post-emerge Herbicidal Activity IPOHE (phytotoxicity rating) ([5]; 250 g ai/ha) | Post-emerge Herbicidal Activity AMARE (phytotoxicity rating) ([7]; 63 g ai/ha, rating scale 0-100 (0 no damage, 100 complete death)) | Post-emerge Herbicidal Activity AMARE (phytotoxicity rating) ([7]; 250 g ai/ha, rating scale 0-100) | Post-emerge Herbicidal Activity CHEAL (phytotoxicity rating) ([8]; 63 g ai/ha) | Post-emerge Herbicidal Activity CHEAL (phytotoxicity rating) ([8]; 250 g ai/ha) | Post-emerge Herbicidal Activity ABUTH (phytotoxicity rating) ([10]; 63 g ai/ha) | Post-emerge Herbicidal Activity ABUTH (phytotoxicity rating) ([10]; 250 g ai/ha) | Post-emerge Herbicidal Activity CASOB (phytotoxicity rating) ([12]; 250 g ai/ha) | phytotoxicity rating AMARE ([13]; 63 g ai/ha) | phytotoxicity rating AMARE ([13]; 250 g ai/ha) | phytotoxicity rating IPOHE ([14]; 250 g ai/ha) | phytotoxicity rating ECHCG ([15]; 250 g ai/ha) | phytotoxicity rating CHEAL ([16]; 63 g ai/ha) | phytotoxicity rating CHEAL ([16]; 250 g ai/ha) | phytotoxicity rating DIGSA ([17]; 250 g ai/ha) | phytotoxicity rating ABUTH ([18]; 63 g ai/ha) | phytotoxicity rating ABUTH ([18]; 250 g ai/ha) | phytotoxicity rating SETVI ([19]; 63 g ai/ha) | phytotoxicity rating SETVI ([19]; 250 g ai/ha) | phytotoxicity rating SORHA ([20]; 250 g ai/ha) | phytotoxicity rating CASOB ([21]; 63 g ai/ha) | phytotoxicity rating CASOB ([21]; 250 g ai/ha)
90: phytotoxicity rating RICE ([2]; 63 g ai/ha) | Post-emerge Herbicidal Activity RICE (crop damage rating) ([4]; 250 g ai/ha) | Post-emerge Herbicidal Activity SETVI (phytotoxicity rating) ([11]; 250 g ai/ha) | phytotoxicity rating DIGSA ([17]; 63 g ai/ha)
50: Post-emerge Herbicidal Activity RICE (crop damage rating) ([4]; 63 g ai/ha)
30: Post-emerge Herbicidal Activity SETVI (phytotoxicity rating) ([11]; 63 g ai/ha)
20: Post-emerge Herbicidal Activity DIGSA (phytotoxicity rating) ([9]; 63 g ai/ha)

Source: patent US6355799B1, “Substituted benzene compounds, process for their preparation, and herbicidal and defoliant compositions containing them” (ISK Americas Incorporated, priority 1997, dated 2002)
